Structures can show the parent of a compound that is named as a salt.
Key:
[1] = molecular target: MET (human) (Homo sapiens, UniProt P08581); experiment: MET kinase AlphaScreen assay (Km of ATP); type: biochemical; settings: ATP at Km; at least duplicate experiments
Description: (§1) Person skilled in the art will appreciate that a variety of assay formats may be used to determine the activity of the compounds of this invention. For example, AlphaScreen (Amplified Luminescent Proximity Homogeneous Assay) technology was used with the kinases described below. Assay ATP concentrations for individual kinases are included in the text.
MET (human)—Km of ATP: MET assay is performed in a 384 well assay containing 200 ng/μL biotinylated poly(Glu,Tyr), 0.334 mM vanadate, desired concentration of ATP optimized for the enzyme in assay buffer (50 mM HEPES (pH=7.4), 5 mM MgCl2, 5 mM MnCl2, and 1% glycerol). Desired compound is added in a final concentration of 1% DMSO with control being vehicle of DMSO alone. MET is diluted to the optimized concentration (optimized on a lot-by-lot basis) in an enzyme diluent buffer (50 mM Tris pH=7.4, 1% glycerol, 0.03% Brij35, 0.24 mM EGTA, 1 mM DTT, and 0.003% BSA). Enzyme is added to initiate the reaction and incubated for 60 min at RT. In subdued light, appropriate amount of PT66 donor and acceptor beads (diluted 1:260 from manufacturer's provision in a 25 mM Tris HCl (pH=7.5), 400 mM NaCl, 100 mM EDTA, 0.3% BSA buffer) are added to the wells. The plates, incubated for 1 h, are read on an AlphaQuest plate reader

[2] = molecular target: RON (human) (Homo sapiens, UniProt Q04912); experiment: RON kinase AlphaScreen assay (Km of ATP); type: biochemical; settings: ATP at Km; at least duplicate experiments
RON (human), sequence (Q04912 25-1400): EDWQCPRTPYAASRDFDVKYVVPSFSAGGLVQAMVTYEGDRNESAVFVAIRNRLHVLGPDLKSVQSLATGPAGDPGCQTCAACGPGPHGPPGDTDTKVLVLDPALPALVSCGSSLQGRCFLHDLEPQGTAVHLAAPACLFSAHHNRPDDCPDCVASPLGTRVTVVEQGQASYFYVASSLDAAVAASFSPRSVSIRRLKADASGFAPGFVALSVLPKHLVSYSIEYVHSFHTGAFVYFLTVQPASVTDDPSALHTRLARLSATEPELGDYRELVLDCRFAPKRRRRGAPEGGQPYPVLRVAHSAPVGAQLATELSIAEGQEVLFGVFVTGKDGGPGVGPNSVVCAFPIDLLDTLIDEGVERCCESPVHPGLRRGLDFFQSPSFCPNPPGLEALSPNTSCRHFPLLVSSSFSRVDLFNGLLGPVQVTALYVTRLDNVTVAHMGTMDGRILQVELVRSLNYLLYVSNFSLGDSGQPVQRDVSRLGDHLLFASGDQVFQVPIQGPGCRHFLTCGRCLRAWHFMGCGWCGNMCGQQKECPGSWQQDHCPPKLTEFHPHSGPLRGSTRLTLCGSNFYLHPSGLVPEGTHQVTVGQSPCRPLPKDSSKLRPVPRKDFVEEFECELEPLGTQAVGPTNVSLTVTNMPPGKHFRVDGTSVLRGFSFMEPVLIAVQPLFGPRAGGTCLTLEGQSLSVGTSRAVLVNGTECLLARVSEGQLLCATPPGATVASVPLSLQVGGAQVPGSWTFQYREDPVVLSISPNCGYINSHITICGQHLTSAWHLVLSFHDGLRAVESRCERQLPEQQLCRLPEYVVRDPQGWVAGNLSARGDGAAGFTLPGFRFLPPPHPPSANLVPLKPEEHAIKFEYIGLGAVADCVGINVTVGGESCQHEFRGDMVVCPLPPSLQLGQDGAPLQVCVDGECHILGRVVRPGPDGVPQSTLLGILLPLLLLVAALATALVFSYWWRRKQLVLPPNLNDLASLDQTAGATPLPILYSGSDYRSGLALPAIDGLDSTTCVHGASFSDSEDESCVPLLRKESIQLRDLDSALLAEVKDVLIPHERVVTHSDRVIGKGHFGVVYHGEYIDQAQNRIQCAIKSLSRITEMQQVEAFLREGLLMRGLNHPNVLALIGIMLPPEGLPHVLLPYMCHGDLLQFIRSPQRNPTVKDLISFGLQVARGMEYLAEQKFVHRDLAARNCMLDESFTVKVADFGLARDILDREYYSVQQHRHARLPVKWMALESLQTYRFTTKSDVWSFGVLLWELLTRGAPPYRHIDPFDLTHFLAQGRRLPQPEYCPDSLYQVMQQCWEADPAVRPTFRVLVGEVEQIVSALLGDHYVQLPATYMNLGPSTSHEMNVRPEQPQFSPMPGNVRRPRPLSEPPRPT
Description: as §1
RON (human)—Km of ATP: RON assay is performed in a 384 well assay containing 200 ng/μL biotinylated poly(Glu,Tyr), 0.334 mM vanadate, desired concentration of ATP optimized for the enzyme in assay buffer (50 mM HEPES (pH=7.4), 12.5 mM MgCl2 and 1% glycerol). Desired compound is added in a final concentration of 1% DMSO with control being vehicle of DMSO alone. RON is diluted to the optimized (on a lot-by-lot basis) concentration in an enzyme diluent buffer (50 mM HEPES pH=7.4, 12.5 mM MgCl2 and 1% glycerol, 0.03% Brij35, 0.3 mM EGTA, lmM DTT, and 0.003% BSA). Enzyme is added to initiate the reaction and incubated for 30 min at RT. In subdued light, appropriate amount of PT66 donor and acceptor beads (diluted 1:260 from manufacturer's provision in a 25 mM Tris HCl (pH=7.5), 200 mM NaCl, 100 mM EDTA, 0.3% BSA buffer) are added to the wells. The plates, incubated for 1 h, are read on an AlphaQuest plate reader.

MET (human), sequence (P08581 25-1390): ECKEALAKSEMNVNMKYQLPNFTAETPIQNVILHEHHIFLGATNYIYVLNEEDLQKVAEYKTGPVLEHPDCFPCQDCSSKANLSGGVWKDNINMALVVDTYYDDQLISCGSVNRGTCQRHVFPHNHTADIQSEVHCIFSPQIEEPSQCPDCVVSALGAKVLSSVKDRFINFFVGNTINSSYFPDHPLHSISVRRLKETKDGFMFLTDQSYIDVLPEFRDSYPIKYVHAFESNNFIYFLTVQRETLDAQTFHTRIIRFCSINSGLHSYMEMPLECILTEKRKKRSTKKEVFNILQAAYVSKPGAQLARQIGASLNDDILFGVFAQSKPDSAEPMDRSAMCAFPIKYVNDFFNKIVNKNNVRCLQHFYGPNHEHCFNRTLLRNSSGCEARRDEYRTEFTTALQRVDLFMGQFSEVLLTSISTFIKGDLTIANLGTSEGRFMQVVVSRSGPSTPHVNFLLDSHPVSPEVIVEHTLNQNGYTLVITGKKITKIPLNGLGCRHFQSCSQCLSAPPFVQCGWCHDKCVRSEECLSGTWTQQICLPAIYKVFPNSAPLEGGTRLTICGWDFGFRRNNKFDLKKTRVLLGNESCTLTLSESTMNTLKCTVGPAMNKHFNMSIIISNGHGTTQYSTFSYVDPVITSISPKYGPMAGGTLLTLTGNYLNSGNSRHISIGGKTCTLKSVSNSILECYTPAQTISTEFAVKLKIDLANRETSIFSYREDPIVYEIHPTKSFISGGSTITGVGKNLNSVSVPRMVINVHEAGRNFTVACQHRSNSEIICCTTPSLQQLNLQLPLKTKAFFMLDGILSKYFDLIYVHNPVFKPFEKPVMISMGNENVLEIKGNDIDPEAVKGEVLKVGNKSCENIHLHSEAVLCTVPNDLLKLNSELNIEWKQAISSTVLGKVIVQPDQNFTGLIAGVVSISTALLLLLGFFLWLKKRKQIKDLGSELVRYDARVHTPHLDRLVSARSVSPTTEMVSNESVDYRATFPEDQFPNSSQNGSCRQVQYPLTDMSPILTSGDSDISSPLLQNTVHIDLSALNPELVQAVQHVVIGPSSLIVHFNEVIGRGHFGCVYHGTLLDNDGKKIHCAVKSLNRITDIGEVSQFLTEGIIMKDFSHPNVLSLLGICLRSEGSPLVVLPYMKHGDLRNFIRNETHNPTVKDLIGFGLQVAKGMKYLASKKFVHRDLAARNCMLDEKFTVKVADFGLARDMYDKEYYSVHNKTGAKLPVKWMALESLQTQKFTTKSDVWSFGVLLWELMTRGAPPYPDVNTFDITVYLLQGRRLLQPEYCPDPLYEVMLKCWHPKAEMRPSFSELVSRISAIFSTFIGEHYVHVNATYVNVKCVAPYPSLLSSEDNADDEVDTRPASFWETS

Row | IC50 [1] | IC50 [2] | SMILES
1 | ≤ 0.1 µM | 0.1 to 1 µM | Nc1ncc(-c2cnn([C@@H]3CNC(CO)C3)c2)cc1-c1nc2ccccc2s1 (mixture of isomers) [Example 180, {(S)-4-[4-(6-Amino-5-benzothiazol-2-ylpyridin-3-yl)-pyrazol-1-yl]-pyrrolidin-2-yl}-methanol]
2 | 1 to 20 µM | 1 to 20 µM | Cc1nc(-c2cc(-c3cnn(C4CCNCC4)c3)cnc2N)cc2ccccc12 [Example 1, 3-(1-Methylisoquinolin-3-yl)-5-(1-piperidin-4-yl-1H-pyrazol-4-yl)-pyridin-2-ylamine trihydrochloride]
3 | 1 to 20 µM | > 20 µM | Cc1c(-c2cc(-c3cnn(C4CCNCC4)c3)cnc2N)ncc2ccccc12 [Example 2, 3-(4-Methylisoquinolin-3-yl)-5-(1-piperidin-4-yl-1H-pyrazol-4-yl)-pyridin-2-ylamine trihydrochloride]
4 | ≤ 0.1 µM | ≤ 0.1 µM | Nc1ncc(-c2cnn(C3CCNCC3)c2)cc1-c1cc2cccc(Cl)c2cn1 [Example 3, 3-(8-Chloroisoquinolin-3-yl)-5-(1-piperidin-4-yl-1H-pyrazol-4-yl)-pyridin-2-ylamine trihydrochloride]
5 | 0.1 to 1 µM | 1 to 20 µM | Cc1ccc2cnc(-c3cc(-c4cnn(C5CCNCC5)c4)cnc3N)cc2c1 [Example 4, 3-(6-Methylisoquinolin-3-yl)-5-(1-piperidin-4-yl-1H-pyrazol-4-yl)-pyridin-2-ylamine trihydrochloride]
6 | 0.1 to 1 µM | 0.1 to 1 µM | Cc1cccc2cc(-c3cc(-c4cnn(C5CCNCC5)c4)cnc3N)ncc12 [Example 5, 3-(8-Methylisoquinolin-3-yl)-5-(1-piperidin-4-yl-1H-pyrazol-4-yl)-pyridin-2-ylamine trihydrochloride]
7 | 0.1 to 1 µM | 0.1 to 1 µM | Cc1ccc(F)c2cnc(-c3cc(-c4cnn(C5CCNCC5)c4)cnc3N)cc12 [Example 6, 3-(8-Fluoro-5-methylisoquinolin-3-yl)-5-(1-piperidin-4-yl-1H-pyrazol-4-yl)-pyridin-2-ylamine trihydrochloride]
8 | ≤ 0.1 µM | 0.1 to 1 µM | Nc1ncc(-c2cnn(C3CCNCC3)c2)cc1-c1cc2c(Br)ccc(F)c2cn1 [Example 7, 3-(5-Bromo-8-fluoroisoquinolin-3-yl)-5-(1-piperidin-4-yl-1H-pyrazol-4-yl)-pyridin-2-ylamine trihydrochloride]
9 | 1 to 20 µM | 1 to 20 µM | Nc1ncc(-c2cnn(C3CCNCC3)c2)cc1-c1ncc2ccccc2c1F [Example 8, 3-(4-Fluoroisoquinolin-3-yl)-5-(1-piperidin-4-yl-1H-pyrazol-4-yl)-pyridin-2-ylamine trihydrochloride]
10 | ≤ 0.1 µM | 0.1 to 1 µM | Nc1ncc(-c2cnn(C3CCNCC3)c2)cc1-c1cc2c(Cl)ccc(Cl)c2cn1 [Example 9, 3-(5,8-Dichloroisoquinolin-3-yl)-5-(1-piperidin-4-yl-1H-pyrazol-4-yl)-pyridin-2-ylamine trihydrochloride]
11 | 0.1 to 1 µM | 1 to 20 µM | Nc1ncc(-c2cnn(C3CCNCC3)c2)cc1-c1cc2c(F)ccc(F)c2cn1 [Example 10, 3-(5,8-Difluoroisoquinolin-3-yl)-5-(1-piperidin-4-yl-1H-pyrazol-4-yl)-pyridin-2-ylamine trihydrochloride]
12 | ≤ 0.1 µM | 0.1 to 1 µM | Nc1ncc(-c2cnn(C3CCNCC3)c2)cc1-c1cc2c(Cl)ccc(F)c2cn1 [Example 11, 3-(5-Chloro-8-fluoroisoquinolin-3-yl)-5-(1-piperidin-4-yl-1H-pyrazol-4-yl)-pyridin-2-ylamine trihydrochloride]
13 | 0.1 to 1 µM | 1 to 20 µM | COc1ccc(Cl)c2cc(-c3cc(-c4cnn(C5CCNCC5)c4)cnc3N)ncc12 [Example 12, 4-{4-[6-Amino-5-(5-chloro-8-methoxyisoquinolin-3-yl)-pyridin-3-yl]-pyrazol-1-yl}-piperidine trihydrochloride]
14 | 0.1 to 1 µM | 1 to 20 µM | Nc1ncc(-c2cnn(C3CCNCC3)c2)cc1-c1cc2ccccc2cn1 [Example 13, 3-Isoquinolin-3-yl-5-(1-piperidin-4-yl-1H-pyrazol-4-yl)-pyridin-2-ylamine trihydrochloride]
15 | 1 to 20 µM | 1 to 20 µM | Nc1ncc(-c2cnn(C3CCNCC3)c2)cc1-c1cc2ccc(OC(F)(F)F)cc2cn1 [Example 14, 5-(1-Piperidin-4-yl-1H-pyrazol-4-yl)-3-(7-trifluoromethoxy-isoquinolin-3-yl)-pyridin-2-ylamine trihydrochloride]
16 | ≤ 0.1 µM | 0.1 to 1 µM | Nc1ncc(-c2cnn(C3CCNCC3)c2)cc1-c1cc2c(Cl)c(F)cc(F)c2cn1 [Example 15, 3-(5-Chloro-6,8-difluoroisoquinolin-3-yl)-5-(1-piperidin-4-yl-1H-pyrazol-4-yl)-pyridin-2-ylamine trihydrochloride salt]
17 | 0.1 to 1 µM | 0.1 to 1 µM | Nc1ncc(-c2cnn(C3CCNCC3)c2)cc1-c1cc2cc(C(F)(F)F)ccc2cn1 [Example 16, 5-(1-Piperidin-4-yl-1H-pyrazol-4-yl)-3-(6-trifluoromethylisoquinolin-3-yl)-pyridin-2-ylamine trihydrochloride salt]
18 | 0.1 to 1 µM | 0.1 to 1 µM | Nc1ncc(-c2cnn(C3CCNCC3)c2)cc1-c1cc2ccc(C(F)(F)F)cc2cn1 [Example 17, 5-(1-Piperidin-4-yl-1H-pyrazol-4-yl)-3-(7-trifluoromethylisoquinolin-3-yl)-pyridin-2-ylamine tri-hydrochloride salt]
19 | 0.1 to 1 µM | 0.1 to 1 µM | Nc1ncc(-c2cnn(C3CCNCC3)c2)cc1-c1cc2c(C(F)(F)F)cccc2cn1 [Example 18, 5-(1-Piperidin-4-yl-1H-pyrazol-4-yl)-3-(5-trifluoromethylisoquinolin-3-yl)-pyridin-2-ylamine trihydrochloride salt]
20 | 0.1 to 1 µM | 0.1 to 1 µM | Nc1ncc(-c2cnn(C3CCNCC3)c2)cc1-c1cc2cccc(C(F)(F)F)c2cn1 [Example 19, 5-(1-Piperidin-4-yl-1H-pyrazol-4-yl)-3-(8-trifluoromethylisoquinolin-3-yl)-pyridin-2-ylamine trihydrochloride salt]
21 | 0.1 to 1 µM | 0.1 to 1 µM | Cc1ccc(C)c2cc(-c3cc(-c4cnn(C5CCNCC5)c4)cnc3N)ncc12 [Example 20, 3-(5,8-Dimethylisoquinolin-3-yl)-5-(1-piperidin-4-yl-1H-pyrazol-4-yl)-pyridin-2-ylamine trihydrochloride salt]
22 | 0.1 to 1 µM | 1 to 20 µM | Nc1ncc(-c2cnn(C3CCNCC3)c2)cc1-c1cc2ccc(Br)cc2cn1 [Example 21, 3-(7-Bromoisoquinolin-3-yl)-5-(1-piperidin-4-yl-1H-pyrazol-4-yl)-pyridin-2-ylamine trihydrochloride salt]
23 | 0.1 to 1 µM | 1 to 20 µM | Nc1ncc(-c2cnn(C3CCNCC3)c2)cc1-c1cc2c(Br)cccc2cn1 [Example 22, 3-(5-Bromoisoquinolin-3-yl)-5-(1-piperidin-4-yl-1H-pyrazol-4-yl)-pyridin-2-ylamine trihydrochloride salt]
24 | 0.1 to 1 µM | 0.1 to 1 µM | Nc1ncc(-c2cnn(C3CCNCC3)c2)cc1-c1cc2cc(Br)ccc2cn1 [Example 23, 3-(6-Bromoisoquinolin-3-yl)-5-(1-piperidin-4-yl-1H-pyrazol-4-yl)-pyridin-2-ylamine trihydrochloride salt]
25 | 0.1 to 1 µM | 0.1 to 1 µM | Nc1ncc(-c2cnn(C3CCNCC3)c2)cc1-c1cc2cccc(Br)c2cn1 [Example 24, 3-(8-Bromoisoquinolin-3-yl)-5-(1-piperidin-4-yl-1H-pyrazol-4-yl)-pyridin-2-ylamine trihydrochloride salt]
26 | 0.1 to 1 µM | 0.1 to 1 µM | Nc1ncc(-c2cnn(C3CCNCC3)c2)cc1-c1cc2cc(-c3ccccc3)ccc2cn1 [Example 25, 3-(6-Phenylisoquinolin-3-yl)-5-(1-piperidin-4-yl-1H-pyrazol-4-yl)-pyridin-2-ylamine tri-hydrochloride salt]
27 | 0.1 to 1 µM | 0.1 to 1 µM | Nc1ncc(-c2cnn(C3CCNCC3)c2)cc1-c1cc2ccc(-c3ccccc3)cc2cn1 [Example 26, 3-(7-Phenylisoquinolin-3-yl)-5-(1-piperidin-4-yl-1H-pyrazol-4-yl)-pyridin-2-ylamine tri-hydrochloride salt]

From patent publication US8178668B2, “2-aminopyridine kinase inhibitors” (OSI Pharmaceuticals, LLC, priority 2008, dated 2012)
